In the supplement of paper PMC9013687:

Experiments:
[1] = tested on: Danio rerio embryo
Experimental: (§1)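 Zebrafish embryos (UFZ-OBI strain) were exposed from 2 hpf for 48 h (2 dpf) or 96 h (4 dpf) at 28 °C; spontaneous tail coiling was scored at 25 hpf. Morphological features from automated image analysis (FishInspector), heart rate and locomotor response were fitted with drc models. Quantal endpoints were dichotomised at 2.5 SD from controls and fitted with a log-logistic model; heart rate, pigmentation and STC were normalised to the replicate control mean. Betamethasone was tested as betamethasone dipropionate, diflorasone as diflorasone diacetate.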

[2] = tested on: Danio rerio embryo; conditions: exposure time: 4 dpf
Experimental: as §1

[3] = tested on: Danio rerio embryo; assay: EC50 Curvature_Increase
Experimental: as §1

[4] = tested on: Danio rerio embryo; assay: EC50 Body length_Decrease
Experimental: as §1

[5] = tested on: Danio rerio embryo; assay: EC50 Bladder size_Decrease; conditions: exposure time: 4 dpf
Experimental: as §1

[6] = tested on: Danio rerio embryo; assay: EC50 Pericard size_Increase
Experimental: as §1

[7] = tested on: Danio rerio embryo; assay: EC50 Yolk sac size_Increase; conditions: exposure time: 4 dpf
Experimental: as §1

[8] = tested on: Danio rerio embryo; assay: EC50 Eye-jaw distance_Decrease; conditions: exposure time: 4 dpf
Experimental: as §1

[9] = tested on: Danio rerio embryo; assay: EC50 Otolith-eye distance_Decrease; conditions: exposure time: 4 dpf
Experimental: as §1

[10] = tested on: Danio rerio embryo; assay: EC10 LMR dark; higher = less potent; conditions: exposure time: 4 dpf
Experimental: as §1

[11] = tested on: Danio rerio embryo; assay: EC20 LMR dark; higher = less potent; conditions: exposure time: 4 dpf
Experimental: as §1

[12] = tested on: Danio rerio embryo; assay: EC20 Any effect; higher = less potent
Experimental: as §1

[13] = tested on: Danio rerio embryo; assay: EC10 Any effect; higher = less potent
Experimental: as §1

[14] = tested on: Danio rerio embryo; assay: EC10 Curvature_Increase; higher = less potent
Experimental: as §1

[15] = tested on: Danio rerio embryo; assay: EC20 Curvature_Increase; higher = less potent
Experimental: as §1

[16] = tested on: Danio rerio embryo; assay: EC20 Body length_Decrease; higher = less potent
Experimental: as §1

[17] = tested on: Danio rerio embryo; assay: EC10 Body length_Decrease; higher = less potent
Experimental: as §1

[18] = tested on: Danio rerio embryo; assay: EC10 Bladder size_Decrease; higher = less potent; conditions: exposure time: 4 dpf
Experimental: as §1

[19] = tested on: Danio rerio embryo; assay: EC20 Bladder size_Decrease; higher = less potent; conditions: exposure time: 4 dpf
Experimental: as §1

[20] = tested on: Danio rerio embryo; assay: EC20 Yolk sac size_Increase; higher = less potent; conditions: exposure time: 4 dpf
Experimental: as §1

[21] = tested on: Danio rerio embryo; assay: EC20 Pericard size_Increase; higher = less potent
Experimental: as §1

[22] = tested on: Danio rerio embryo; assay: EC10 Yolk sac size_Increase; higher = less potent; conditions: exposure time: 4 dpf
Experimental: as §1

[23] = tested on: Danio rerio embryo; assay: EC10 Pericard size_Increase; higher = less potent
Experimental: as §1

[24] = tested on: Danio rerio embryo; assay: EC20 Eye-jaw distance_Decrease; higher = less potent; conditions: exposure time: 4 dpf
Experimental: as §1

[25] = tested on: Danio rerio embryo; assay: EC10 Eye-jaw distance_Decrease; higher = less potent; conditions: exposure time: 4 dpf
Experimental: as §1

[26] = tested on: Danio rerio embryo; assay: EC20 Otolith-eye distance_Decrease; higher = less potent; conditions: exposure time: 4 dpf
Experimental: as §1

[27] = tested on: Danio rerio embryo; assay: EC10 Otolith-eye distance_Decrease; higher = less potent; conditions: exposure time: 4 dpf
Experimental: as §1

[28] = tested on: Danio rerio embryo; assay: spontaneous tail coiling frequency (coils/min/embryo); higher = more spontaneous movement; conditions: 25 hpf
Experimental: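 Spontaneous tail coilings of zebrafish embryos exposed from 2 hpf were recorded at 24-25 hpf in 1-min videos and detected by a KNIME workflow from grey-value variance. Betamethasone was tested as the dipropionate, diflorasone as the diacetate.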

CC(C)(C)C(O)C(Oc1ccc(Cl)cc1)n1cncn1 (stereo not drawn) [Triadimenol]
Conditions | EC10 Any effect [µM] | EC10 Body length Decrease [µM] | EC10 Curvature Increase [µM] | EC10 Pericard size Increase [µM] | EC20 Any effect [µM] | EC20 Body length Decrease [µM] | EC20 Curvature Increase [µM] | EC20 Pericard size Increase [µM] | EC50 Any effect [µM] | EC50 Body length Decrease [µM] | EC50 Curvature Increase [µM] | EC50 Pericard size Increase [µM] | EC50 STC decrease [µM] | spontaneous tail coiling frequency
[1], exposure time: 2 dpf | – | – | – | – | – | – | – | – | 133 | – | – | – | – | –
[1], exposure time: 4 dpf | – | – | – | – | – | – | – | – | 45.5 | – | – | – | – | –
[1], exposure time: 25 h | – | – | – | – | – | – | – | – | – | – | – | – | 169 | –
[3], exposure time: 2 dpf | – | – | – | – | – | – | – | – | – | – | 136 | – | – | –
[3], exposure time: 4 dpf | – | – | – | – | – | – | – | – | – | – | 117 | – | – | –
[4], exposure time: 2 dpf | – | – | – | – | – | – | – | – | – | 169 | – | – | – | –
[4], exposure time: 4 dpf | – | – | – | – | – | – | – | – | – | 106 | – | – | – | –
[6], exposure time: 2 dpf | – | – | – | – | – | – | – | – | – | – | – | 225 | – | –
[6], exposure time: 4 dpf | – | – | – | – | – | – | – | – | – | – | – | 84.3 | – | –
[12], exposure time: 2 dpf | – | – | – | – | 127 | – | – | – | – | – | – | – | – | –
[12], exposure time: 4 dpf | – | – | – | – | 31.7 | – | – | – | – | – | – | – | – | –
[13], exposure time: 2 dpf | 123 | – | – | – | – | – | – | – | – | – | – | – | – | –
[13], exposure time: 4 dpf | 25.7 | – | – | – | – | – | – | – | – | – | – | – | – | –
[14], exposure time: 2 dpf | – | – | 116 | – | – | – | – | – | – | – | – | – | – | –
[14], exposure time: 4 dpf | – | – | 67.2 | – | – | – | – | – | – | – | – | – | – | –
[15], exposure time: 2 dpf | – | – | – | – | – | – | 123 | – | – | – | – | – | – | –
[15], exposure time: 4 dpf | – | – | – | – | – | – | 82.4 | – | – | – | – | – | – | –
[16], exposure time: 2 dpf | – | – | – | – | – | 98.6 | – | – | – | – | – | – | – | –
[16], exposure time: 4 dpf | – | – | – | – | – | 82.5 | – | – | – | – | – | – | – | –
[17], exposure time: 2 dpf | – | 71.8 | – | – | – | – | – | – | – | – | – | – | – | –
[17], exposure time: 4 dpf | – | 71.3 | – | – | – | – | – | – | – | – | – | – | – | –
[21], exposure time: 2 dpf | – | – | – | – | – | – | – | 146 | – | – | – | – | – | –
[21], exposure time: 4 dpf | – | – | – | – | – | – | – | 71 | – | – | – | – | – | –
[23], exposure time: 2 dpf | – | – | – | 113 | – | – | – | – | – | – | – | – | – | –
[23], exposure time: 4 dpf | – | – | – | 64.1 | – | – | – | – | – | – | – | – | – | –
[28], 10.6 µM | – | – | – | – | – | – | – | – | – | – | – | – | – | 2.49
[28], 21.1 µM | – | – | – | – | – | – | – | – | – | – | – | – | – | 2.29
[28], 42.3 µM | – | – | – | – | – | – | – | – | – | – | – | – | – | 3.32
[28], 84.5 µM | – | – | – | – | – | – | – | – | – | – | – | – | – | 2.24
[28], 118.3 µM | – | – | – | – | – | – | – | – | – | – | – | – | – | 1.91
[28], 169.1 µM | – | – | – | – | – | – | – | – | – | – | – | – | – | 1.28
[28], 253.6 µM | – | – | – | – | – | – | – | – | – | – | – | – | – | 0.06
[28], 338.1 µM | – | – | – | – | – | – | – | – | – | – | – | – | – | 0

Conditions | EC10 Bladder size Decrease [µM] | EC10 Eye-jaw distance Decrease [µM] | EC10 LMR dark [µM] | EC10 Otolith-eye distance Decrease [µM] | EC10 Yolk sac size Increase [µM] | EC20 Bladder size Decrease [µM] | EC20 Eye-jaw distance Decrease [µM] | EC20 LMR dark [µM] | EC20 Otolith-eye distance Decrease [µM] | EC20 Yolk sac size Increase [µM] | EC50 Bladder size Decrease [µM] | EC50 Eye-jaw distance Decrease [µM] | EC50 LMR dark [µM] | EC50 Otolith-eye distance Decrease [µM] | EC50 Yolk sac size Increase [µM]
[2] | – | – | – | – | – | – | – | – | – | – | – | – | 25.2 | – | –
[5] | – | – | – | – | – | – | – | – | – | – | 20.7 | – | – | – | –
[7] | – | – | – | – | – | – | – | – | – | – | – | – | – | – | 114
[8] | – | – | – | – | – | – | – | – | – | – | – | 51.4 | – | – | –
[9] | – | – | – | – | – | – | – | – | – | – | – | – | – | 97.6 | –
[10] | – | – | 6.51 | – | – | – | – | – | – | – | – | – | – | – | –
[11] | – | – | – | – | – | – | – | 10.7 | – | – | – | – | – | – | –
[18] | 19.9 | – | – | – | – | – | – | – | – | – | – | – | – | – | –
[19] | – | – | – | – | – | 20.2 | – | – | – | – | – | – | – | – | –
[20] | – | – | – | – | – | – | – | – | – | 88.7 | – | – | – | – | –
[22] | – | – | – | – | 76.8 | – | – | – | – | – | – | – | – | – | –
[24] | – | – | – | – | – | – | 41.2 | – | – | – | – | – | – | – | –
[25] | – | 36.1 | – | – | – | – | – | – | – | – | – | – | – | – | –
[26] | – | – | – | – | – | – | – | – | 74.3 | – | – | – | – | – | –
[27] | – | – | – | 63.4 | – | – | – | – | – | – | – | – | – | – | –
